Measured values reported in US9687545B2, “Nonspecific immunostimulator composition, method of preparation the same, and its use” (BARODON-S.F.CORP., priority 2014, dated 2017).
Where two headings read alike, the source gives them in different places.

System: highly pathogenic AIV H5N1
Format: in vivo, BALB/C mice
Conditions: for body weight change after challenge: challenged groups treated with BARODON or TamiFlu, 2 weeks

## CCOC(=O)C1=C[C@@H](OC(CC)CC)[C@H](NC(C)=O)[C@@H](N)C1 [TamiFlu]
TamiFlu 10 mg/kg/day orally for 5 days after challenge, by D12
  survival rate: 75%
  body weight change after challenge: none of the groups treated with TamiFlu and BARODON exhibited weight gain after challenge
Listed as TamiFlue
  body weight change after challenge: no difference in weight change between groups
